The text below walks through data of patent publication US20090156609A1, “TREATMENT OF POST-TRAUMATIC STRESS DISORDER WITH TETRAHYDROINDOLONE ARYLPIPERZAINE COMPOUNDS” (priority 2007, published 2009).

The experiment has as its system C57/BL6 male mice. The experiment can be described thus: Contextual fear conditioning in a passive avoidance model. It counts as in vivo. As to the method: The passive avoidance model is an example of a fear conditioning behavior. To perform this test, animals were trained and tested in a Kinder Scientific avoidance system consisting of a shuttle box with a shock grid floor. On day one, mice were introduced to the system by being allowed to move freely between a darkened side and a lighted side of the shuttle box for 3 minutes after a 1 minute acclimation in the dark. Day two (24 hours later) was similar to the first day except that animals received a 1.0 mA foot shock after crossing to the dark compartment. Vehicle or test compounds are administered subcutaneously 30 minutes prior to this training day. Twenty four hours after the training day, animals were put back in the shuttle box and after a minute acclimation period in the dark, the latency to cross from the lighted to the dark compartment (now with the shock off) was recorded.
Response to the development of contextual fear conditioning in an open field model was evaluated in C57/BL6 male mice using an avoidance shuttle chamber (Kinder Scientific, Poway, Calif.). On Day 1, mice were allowed to run through the shuttle box for 3 minutes in order to acclimate them to it. One side was light and the other was dark. One Day 2, animals were dosed subcutaneously […] prior to training. […] The latency to cross to the dark side was recorded, with a 3 minute maximum testing duration.

Molecules are shown by their SMILES.

For the molecule `O=C1CCCc2c1ccn2CCN1CCN(c2cccc(Cl)c2)CC1` [Compound A, 1-{2-[4-(3-Chlorophenyl)piperazin-1-yl]ethyl}-1,5,6,7-tetrahydroindol-4-one], the “latency to cross over to the dark side compared to vehicle (FIG. 3)” value (dosed subcutaneously 20 minutes prior to training, tested 24 hours later) was “showed a reduction in latency to cross over to the dark side”. The “duration of the improvement in latency” value (testing on Days 3-5 post-shock administration) is recorded as “three consecutive days of testing”.
